From patent publication US9630963B2, “Quinolone derivatives as fibroblast growth factor inhibitors” (Principia Biopharma, Inc., priority 2013, dated 2017)

What was measured:
human recombinant FGFR1 = human recombinant FGFR1 (Homo sapiens, UniProt P11362); test: FGFR family enzymatic activity assay (Caliper-based kinase assay), FGFR1; format: biochemical; conditions: FGFR1 0.5 nM, ATP 100 μM, peptide substrate 1 μM, room temperature 3 h
Text: A Caliper-based kinase assay (Caliper Life Sciences, Hopkinton, Mass.) was used to measure inhibition of FGFR family (FGFR1, FGFR2, FGFR3, FGFR4) kinase activity of a compound of Formula (I′) or (I). […] This value is presented as the IC50.

SNU-16 cells = test: Inhibition of FGFR2-dependent cell growth (Cell-titer Glo); format: cell-based; conditions: Homo sapiens, SNU16 cells, 72 hrs incubation, cell viability by Cell-titer Glo
Method: The cell-based effects of FGFR inhibitors were determined by measuring inhibition of FGFR-dependent cell line growth. […] Percent inhibition of cell growth was calculated as a percentage of untreated cell viability. The percent inhibition was plotted as a function of log compound concentration. The IC50 was then calculated for each compound using Prism software from GraphPad.

human recombinant FGFR1, sequence (P11362 22-822): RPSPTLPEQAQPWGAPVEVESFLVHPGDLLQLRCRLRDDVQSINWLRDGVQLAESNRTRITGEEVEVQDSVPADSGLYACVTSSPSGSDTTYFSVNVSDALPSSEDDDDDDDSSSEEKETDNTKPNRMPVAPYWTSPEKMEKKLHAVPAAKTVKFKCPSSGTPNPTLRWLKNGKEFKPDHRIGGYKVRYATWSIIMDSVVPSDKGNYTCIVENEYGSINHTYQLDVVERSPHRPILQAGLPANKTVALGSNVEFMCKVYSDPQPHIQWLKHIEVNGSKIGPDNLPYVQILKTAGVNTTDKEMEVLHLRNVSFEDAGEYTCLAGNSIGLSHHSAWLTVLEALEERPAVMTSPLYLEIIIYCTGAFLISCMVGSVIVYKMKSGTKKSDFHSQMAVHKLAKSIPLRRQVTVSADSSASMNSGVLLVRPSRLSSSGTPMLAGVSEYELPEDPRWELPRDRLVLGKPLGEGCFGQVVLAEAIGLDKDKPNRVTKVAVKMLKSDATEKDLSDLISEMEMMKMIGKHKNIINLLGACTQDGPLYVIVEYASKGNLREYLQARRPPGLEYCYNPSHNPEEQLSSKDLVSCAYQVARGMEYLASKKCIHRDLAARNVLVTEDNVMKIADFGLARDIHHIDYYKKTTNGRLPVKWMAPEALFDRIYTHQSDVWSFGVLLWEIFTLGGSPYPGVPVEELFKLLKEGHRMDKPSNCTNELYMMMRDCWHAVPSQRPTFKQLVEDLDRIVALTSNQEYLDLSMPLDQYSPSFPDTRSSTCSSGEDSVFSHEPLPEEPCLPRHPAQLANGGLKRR

Row | Structure (SMILES) | IC50 (human recombinant FGFR1) [nM] | IC50 (SNU-16 cells) [nM]
1 | C=CC(=O)Nc1ccc(CCn2c(=O)c(-c3c(Cl)c(OC)cc(OC)c3Cl)cc3cnc(NC(C)(C)CO)nc32)cc1 [Example 77, N-(4-(2-(6-(2,6-dichloro-3,5-dimethoxyphenyl)-2-((1-hydroxy-2-methylpropan-2-yl)amino)-7-oxopyrido[2,3-d]pyrimidin-8(7H)-yl)ethyl)phenyl)acrylamide] | 2.3 | 7
2 | C=CC(=O)Nc1ccc(CCn2c(=O)c(-c3c(Cl)c(OC)cc(OC)c3Cl)cc3cnc(NCCO)nc32)nc1 [Example 86, N-(6-(2-(6-(2,6-dichloro-3,5-dimethoxyphenyl)-2-((2-hydroxyethyl)amino)-7-oxopyrido[2,3-d]pyrimidin-8(7H)-yl)ethyl)pyridin-3-yl)acrylamide] | 0.6 | 11.4
3 | C=CS(=O)(=O)Nc1cccc(CCn2c(=O)c(-c3cc(OC)cc(OC)c3Cl)cc3cnc(NC)nc32)c1 [Example 21, N-(3-(2-(6-(2-chloro-3,5-dimethoxyphenyl)-2-(methylamino)-7-oxopyrido[2,3-d]pyrimidin-8(7H)-yl)ethyl)phenyl)ethenesulfonamide] | 6.7 | 115
4 | C=CC(=O)Nc1ccc(CCn2c(=O)c(-c3c(Cl)c(OC)cc(OC)c3Cl)cc3cnc(NC(C)(C)CO)nc32)nc1 [Example 94, N-(6-(2-(6-(2,6-dichloro-3,5-dimethoxyphenyl)-2-((1-hydroxy-2-methylpropan-2-yl)amino)-7-oxopyrido[2,3-d]pyrimidin-8(7H)-yl)ethyl)pyridin-3-yl)acrylamide] | 2.1 | 7.4
5 | C=CC(=O)Nc1ccc(CCn2c(=O)c(-c3cc(OC)cc(OC)c3Cl)cc3cnc(NCCCN(CC)CC)nc32)cc1 [Example 40, N-(4-(2-(6-(2-chloro-3,5-dimethoxyphenyl)-2-((3-(diethylamino)propyl)amino)-7-oxopyrido[2,3-d]pyrimidin-8(7H)-yl)ethyl)phenyl)acrylamide] | 2.4 | 3
6 | C=CC(=O)Nc1ccc(CCn2c(=O)c(-c3c(Cl)c(OC)cc(OC)c3Cl)cc3cnc(NCC(C)(C)CO)nc32)nc1 [Example 97, N-(6-(2-(6-(2,6-dichloro-3,5-dimethoxyphenyl)-2-((3-hydroxy-2,2-dimethylpropyl)-amino)-7-oxopyrido[2,3-d]pyrimidin-8(7H)-yl)ethyl)pyridin-3-yl)acrylamide] | 1.5 | 6.4
7 | C=CC(=O)Nc1ccc(CCn2c(=O)c(-c3c(Cl)c(OC)cc(OC)c3Cl)cc3cnc(NCC(C)(C)CO)nc32)cc1 [Example 93, N-(4-(2-(6-(2,6-dichloro-3,5-dimethoxyphenyl)-2-((3-hydroxy-2,2-dimethylpropyl)-amino)-7-oxopyrido[2,3-d]pyrimidin-8(7H)-yl)ethyl)phenyl)acrylamide] | 0.7 | 1.5
8 | C=CC(=O)Nc1ccc(CCn2c(=O)c(-c3cc(OC)cc(OC)c3Cl)cc3cnc(NCCN4CCS(=O)(=O)CC4)nc32)cc1 [Example 74, N-(4-(2-(6-(2-chloro-3,5-dimethoxyphenyl)-2-((2-(1,1-dioxidothiomorpholino)-ethyl)amino)-7-oxopyrido[2,3-d]pyrimidin-8(7H)-yl)ethyl)phenyl)acrylamide] | 2.2 | 13.3
9 | C=CC(=O)Nc1ccc(CCn2c(=O)c(-c3cc(OC)cc(OC)c3Cl)cc3cnc(NCCCCN(CC)CC)nc32)cn1 [Example 32, N-(5-(2-(6-(2-chloro-3,5-dimethoxyphenyl)-2-((4-(diethylamino)butyl)amino)-7-oxopyrido[2,3-d]pyrimidin-8 (7H)-yl)ethyl)pyridin-2-yl)acrylamide] | 1.2 | 6.7
10 | C=CC(=O)Nc1ccc(CCn2c(=O)c(-c3cc(OC)cc(OC)c3Cl)cc3cnc(NCC(C)(C)C)nc32)cn1 [Example 30, N-(5-(2-(6-(2-chloro-3,5-dimethoxyphenyl)-2-(neopentylamino)-7-oxopyrido[2,3-d]pyrimidin-8(7H)-yl)ethyl)pyridin-2-yl)acrylamide] | 5.1 | 5
11 | C=CC(=O)Nc1ccc(CCn2c(=O)c(-c3cc(OC)cc(OC)c3Cl)cc3cnc(NCC(C)(C)O)nc32)cc1 [Example 24, N-(4-(2-(6-(2-chloro-3,5-dimethoxyphenyl)-2-((2-hydroxy-2-methylpropyl)amino)-7-oxopyrido[2,3-d]pyrimidin-8(7H)-yl)ethyl)phenyl)acrylamide] | 1.7 | 1.8
12 | C=CC(=O)Nc1ccc(CCn2c(=O)c(-c3c(Cl)c(OC)cc(OC)c3Cl)cc3cnc(NN4CCN(C)CC4)nc32)cc1 [Example 105, N-(4-(2-(6-(2,6-dichloro-3,5-dimethoxyphenyl)-2-((4-methylpiperazin-1-yl)amino)-7-oxopyrido[2,3-d]pyrimidin-8(7H)-yl)ethyl)phenyl)acrylamide] | 1.2 | 7.8
13 | C=CC(=O)Nc1nc(CCn2c(=O)c(-c3c(Cl)c(OC)cc(OC)c3Cl)cc3cnc(NC)nc32)cs1 [Example 41, N-(4-(2-(6-(2,6-dichloro-3,5-dimethoxyphenyl)-2-(methylamino)-7-oxopyrido[2,3-d]pyrimidin-8(7H)-yl)ethyl)thiazol-2-yl)acrylamide] | 5 | > 330
14 | C=CC(=O)Nc1ccc(CCn2c(=O)c(-c3cc(OC)cc(OC)c3Cl)cc3cnc(NCCN4CCOCC4)nc32)c(F)c1 [Example 55, N-(4-(2-(6-(2-chloro-3,5-dimethoxyphenyl)-2-((2-morpholinoethyl)amino)-7-oxopyrido[2,3-d]pyrimidin-8(7H)-yl)ethyl)-3-fluorophenyl)acrylamide] | 2.2 | 4.3
15 | C=CC(=O)Nc1ccc(CCn2c(=O)c(-c3c(Cl)c(OC)cc(OC)c3Cl)cc3cnc(NC(CO)CO)nc32)nc1 [Example 87, N-(6-(2-(6-(2,6-dichloro-3,5-dimethoxyphenyl)-2-((1,3-dihydroxypropan-2-yl)amino)-7-oxopyrido[2,3-d]pyrimidin-8(7H)-yl)ethyl)pyridin-3-yl)acrylamide] | 1.2 | 169
16 | C#CCNc1ncc2cc(-c3c(Cl)c(OC)cc(OC)c3Cl)c(=O)n(CCc3ccc(NC(=O)C=C)cn3)c2n1 [Example 101, N-(6-(2-(6-(2,6-dichloro-3,5-dimethoxyphenyl)-7-oxo-2-(prop-2-yn-1-ylamino)-pyrido[2,3-d]pyrimidin-8(7H)-yl)ethyl)pyridin-3-yl)acrylamide] | 0.3 | 1.6
17 | C=CC(=O)Nc1ccc(CCn2c(=O)c(-c3cc(OC)cc(OC)c3Cl)cc3cnc(N)nc32)cc1 [Example 27, N-(4-(2-(2-amino-6-(2-chloro-3,5-dimethoxyphenyl)-7-oxopyrido[2,3-d]pyrimidin-8(7H)-yl)ethyl)phenyl)acrylamide] | 0.9 | 7.4
18 | C=CC(=O)Nc1ccc(CCn2c(=O)c(-c3cc(OC)cc(OC)c3Cl)cc3cnc(NCCN4CCOCC4)nc32)cc1Cl [Example 56, N-(4-(2-(6-(2-chloro-3,5-dimethoxyphenyl)-2-((2-morpholinoethyl)amino)-7-oxopyrido[2,3-d]pyrimidin-8(7H)-yl)ethyl)-2-chlorophenyl)acrylamide] | 3.7 | 5
19 | C=CC(=O)Nc1ccc(CCn2c(=O)c(-c3cc(OC)cc(OC)c3Cl)cc3cnc(NCC(C)(C)CO)nc32)cc1 [Example 83, N-(4-(2-(6-(2-chloro-3,5-dimethoxyphenyl)-2-((3-hydroxy-2,2-dimethyl-propyl)amino)-7-oxopyrido[2,3-d]pyrimidin-8(7H)-yl)ethyl)phenyl)acrylamide] | 0.6 | 4.2
